For 87 compounds, viability results are on record in PMC12040169 (PLOS Biology, 2025).

This series in a line: in vitro. The settings on record: human, hela cells.

In general, viability refers to a read-out of living cells in per cent, often relative to untreated cells. `Cc1noc(C)c1S(N)(=O)=O` [CBK022939]: the viability at 28.5 h, 10 µM (% viability) worked out at 84.6%. For `CC1(C)Sc2nc3ccccc3n2C1=O` [CBK022971], the viability at 28.5 h, 10 µM (% viability) is 85.4%. On the same count and under the same terms, the same measure for `CC1CN(C(C)N2CC(C)OC2=O)C(=O)O1` (stereo not drawn) [CBK022981]: 89.8%; for `COc1cc(/C(CS(C)(=O)=O)=N\O)cc(OC)c1OC` [CBK022984]: 83.8%. Take `CC(/C(=N/O)c1ccccc1)C(O)c1ccccn1` (stereo not drawn) [CBK022993]: the viability at 28.5 h, 10 µM (% viability) came out at 83.3%. Take `COc1ccc(C(=O)[C@@H]2CCCC[C@H]2N)cc1` [CBK023040C]: the viability at 28.5 h, 10 µM (% viability) was 91.6%. On to `OC1(c2ccc(Cl)cc2)CCNCC1` [CBK023044], for which, where the note is “% viability”, the viability at 28.5 h, 10 µM turned out to be 92%. The same measure, in the same setting: next, `O=C(Nc1ccccc1)OCC(CN1CCCCC1)OC(=O)Nc1ccccc1` (stereo not drawn) [CBK023067C]: 103%; `CC1(C)CCCN1C1=NC(=O)C(c2ccccc2)O1` (stereo not drawn) [CBK023070]: 104%. On to `CNC(=O)Oc1ccc(C2(C)SCCS2)cc1` [CBK023078], for which the viability at 28.5 h, 10 µM is 98.9%. In the case of `CCOC(=O)n1c(=O)n2n(c1=O)CC=CC2` [CBK023102], under “% viability”, the viability at 28.5 h, 10 µM is 93.9%. In the case of `Nc1ccc(Cl)cc1C(O)(CCCN1CCCCC1)c1ccccc1` (stereo not drawn) [CBK023107], for the setting “% viability”, the viability at 28.5 h, 10 µM was determined as 98.1%. In the case of `Cc1cc2nc(NS(C)(=O)=O)n(S(C)(=O)=O)c2cc1C` [CBK023112], under “% viability”, the viability at 28.5 h, 10 µM worked out at 106%. Turning to `COc1ccc(C(=O)C2CCCCC23NCCN3)cc1` (stereo not drawn) [CBK023140], the viability at 28.5 h, 10 µM (% viability) amounted to 104%. The same measure, in the same setting: the same measure for `CCN(CC)CCN(CC(=O)Nc1c(C)cccc1Cl)Cc1ccccc1` [CBK023143]: 97.7%. Still for that read-out and setting: next, `Cc1nc2c(c(CCC(=O)O)n1)CCCC2` [CBK023157]: 98.4%. Same read-out and setting: the same measure for `CC1CCCN(C(=O)N(C)C)C1` (stereo not drawn) [CBK023175]: 118%; for `CCN(CC)CCCOC(=O)C(CCSC)c1ccccc1C` (stereo not drawn) [CBK023177C]: 91.7%; for `O=C(O)c1ccc(NS(=O)(=O)c2ccccc2)cc1O` [CBK023181]: 96.1%. As for `CC1CCCCN1CC(=O)Nc1ccccc1Oc1ccccc1` (stereo not drawn) [CBK023182C], where the note is “% viability”, the viability at 28.5 h, 10 µM came out at 95.1%. On the same count and under the same terms, the same measure for `O=S(=O)(c1ccccc1)C1CC1` [CBK023184]: 89%; for `Nc1nc2cc3c(cc2[nH]1)OCO3` [CBK023191]: 96.6%. Regarding `CNC(=O)Oc1ccccc1/C=N/N(C)C` [CBK023194], the viability at 28.5 h, 10 µM came out at 97.5%. Turning to `CCOC(=O)c1nc(N)c2c(CC#N)nn(C)c2n1` [CBK023254], the viability at 28.5 h, 10 µM (% viability) was determined as 109%. On the same count and under the same terms, the same measure for `NC(=S)Nc1nc(-c2ccc(Br)cc2)cs1` [CBK023259]: 100%; for `O=S(=O)(/N=C/N1CCCC1)c1ccccc1` [CBK023272]: 89.4%; for `CCOC(=O)CNC1CCCCC1` [CBK023276C]: 91%. Same read-out and setting: next, `COC(=O)c1c(O)noc1C` [CBK023348]: 95.6%; `Cn1c2ccccc2c2nnc(NCCCCO)nc21` [CBK023366]: 98.8%; `C(#Cc1ccc(-c2cc[nH]n2)s1)c1ccccc1` [CBK023413]: 118%. Still for that read-out and setting: next, `O=C(CSc1n[nH]c(=S)s1)NCCc1ccccc1` [CBK023445]: 99.2%; `Nc1nnc(C(F)(F)F)o1` [CBK023457]: 113%; `CCCN(C(=O)OC(C)(C)C)C1CCc2[nH]c(=O)c(C#N)cc2C1` (stereo not drawn) [CBK023470]: 99.7%. With `CCOC(=O)c1c(NC(C)=O)nc2n1CCS2` [CBK023488], the viability at 28.5 h, 10 µM (% viability) was determined as 98.5%.

For `Cc1ccc(S(=O)(=O)NC(=O)N2CC3(C)CC2CC(C)(C)C3)cc1` (stereo not drawn) [CBK023512], the viability at 28.5 h, 10 µM (% viability) was determined as 110%.

As for `CCCCC(c1nnn[nH]1)n1nnc2ccccc21` (stereo not drawn) [CBK023526], the viability at 28.5 h, 10 µM (% viability) is 93.6%. The same measure, in the same setting: the same measure for `CCCC1CN(C)c2ccccc2C1=O` (stereo not drawn) [CBK023527]: 87%; for `Cn1c(=O)c2c(-c3ccccc3)onc2n(C)c1=O` [CBK023569]: 85%.

In the case of `CC(C)(C)C(C#N)C(Oc1ccc(Cl)cc1)n1cncn1` (stereo not drawn) [CBK023570], the viability at 28.5 h, 10 µM (% viability) was 90.3%. On the same count and under the same terms, next, `CC1c2ccsc2CCN1S(C)(=O)=O` (stereo not drawn) [CBK023574]: 86.2%; `S=c1[nH]nc(-c2ccco2)n1-c1ccc(Cl)cc1` [CBK023586]: 97.8%; `COC(=O)c1sccc1S(=O)(=O)N1CCN(c2ncnc3scc(C)c23)CC1` [CBK023600]: 94.2%. Take `CSCc1nc(CS(=O)(=O)Cc2cccc(C(F)(F)F)c2)no1` [CBK023617]: the viability at 28.5 h, 10 µM (% viability) was determined as 87.8%. On to `O=c1c(C(F)(F)F)cccn1Cc1ccccc1` [CBK023620], for which the viability at 28.5 h, 10 µM (% viability) came to 107%. Consider `CCOC(=O)N1CCN(C(=O)c2oc3ccccc3c2C)CC1` [CBK023696], for which, under “% viability”, the viability at 28.5 h, 10 µM is 92.4%. For `CCCCN1CCCC1c1c[nH]c2ccccc12` (stereo not drawn) [CBK023773G], for the setting “% viability”, the viability at 28.5 h, 10 µM stood at 93%. As to `Cc1c(C(=O)CCN(C)C2CC=C(c3ccc(F)cc3)CC2)cnn1CCO` (stereo not drawn) [CBK023799], the viability at 28.5 h, 10 µM (% viability) is 90.4%. With `Cc1nc(Nc2ccc(Cl)cc2)nc(N2CCN(C)CC2)n1` [CBK023855], for the setting “% viability”, the viability at 28.5 h, 10 µM turned out to be 95.4%. As for `Cc1nc(NCc2ccc(C(F)(F)F)cc2)nc(N2CCN(C)CC2)n1` [CBK023866], the viability at 28.5 h, 10 µM (% viability) is 112%. The same measure, in the same setting: next, `CN(c1ncccc1C#N)C1CCN(C(=O)OCc2ccccc2)CC1` [CBK023869C]: 84.1%; `O=C(Cn1c(NCCCO)nc2ccccc21)c1cccs1` [CBK023894B]: 96.5%; `CCN(CC)CC(=O)Nc1c2c(nc3ccccc13)N(C)CC2` [CBK023917C]: 110%.

With `COc1cc2c(cc1OC)C(CCN)=NCC2` [CBK023947C], where the note is “% viability”, the viability at 28.5 h, 10 µM was 86.6%. Take `CN1CCN(CCCCn2nc3n(c2=O)-c2ccccc2OC3(C)C)CC1` [CBK023953C]: the viability at 28.5 h, 10 µM (% viability) came out at 95.8%. Regarding `c1coc(CCC2NCCn3cccc32)c1` (stereo not drawn) [CBK023964F], the viability at 28.5 h, 10 µM (% viability) worked out at 95.2%.

Turning to `CCCC(=O)c1ccc2c(c1)CC(N(CCC)CCC)C2` (stereo not drawn) [CBK023971C], the viability at 28.5 h, 10 µM (% viability) was 95.1%. Same read-out and setting: next, `N=C(N)NCCc1c[nH]c2ccccc12` [CBK024011G]: 107%. With `COc1ccc(CCNCC2OCCc3cccc(OC)c32)cc1OC` (stereo not drawn) [CBK024032C], under “% viability”, the viability at 28.5 h, 10 µM is 118%. Still for that read-out and setting: the same measure for `COc1cc2c(cc1OC)C(CCN1CCN(c3ccccc3C)CC1)OCC(C)(C)C2` (stereo not drawn) [CBK024043C]: 98.5%. On the same count and under the same terms, the same measure for `COc1cc2c(cc1OC)C(CCN1CCN(c3ccc(Cl)cc3)CC1)OCC(C)(C)C2` (stereo not drawn) [CBK024051C]: 111%; for `CCOC(=O)c1cnn(-c2ccccc2)c1NS(=O)(=O)c1cccc(Cl)c1C` [CBK024055]: 84.6%; for `O=C(CNC(=O)OCc1ccncc1)NCC(CCCN1CCC(c2ccccc2)CC1)(c1ccccc1)c1ccccc1` [CBK024060A]: 112%.

`CCCc1ncc(C[n+]2ccccc2C)c(N)n1` [CBK024255C]: the viability at 28.5 h, 10 µM (% viability) is 96.1%. As for `CCC#CC(=O)Nc1ccccc1N1CCCNCC1` [CBK024291T], for the setting “% viability”, the viability at 28.5 h, 10 µM was determined as 98.5%. Consider `Oc1ccc2nc(N[C@H]3CC4CCC3C4)sc2c1Cl` (stereo partly drawn) [CBK024348G], for which the viability at 28.5 h, 10 µM (% viability) came to 62.1%.

As for `COc1cc2c3c(cccc3c1)CC(C)(N(C)C)C2` (stereo not drawn) [CBK024357C], for the setting “% viability”, the viability at 28.5 h, 10 µM came out at 105%. Same read-out and setting: next, `COC(=O)Nc1ccccc1N1CCN(CCCCN2CCN(c3ccccc3)C2=O)CC1` [CBK024372C]: 91.8%; `Cc1cc(NS(=O)(=O)c2cccc(Cl)c2C)n[nH]1` [CBK024382]: 91.2%. For the compound `Cc1cc(=O)[nH]c(N/N=C/c2ccc(Cl)cc2Cl)n1` [CBK024387], the viability at 28.5 h, 10 µM (% viability) turned out to be 95.8%. As to `NCc1ccc(-c2nc3ccccc3[nH]2)nc1` [CBK024396C], the viability at 28.5 h, 10 µM (% viability) is 87.7%. As to `CC(=O)N1CCc2c(c3cccc(Br)c3n2Cc2ccccc2)C1` [CBK024402], the viability at 28.5 h, 10 µM (% viability) stood at 93.9%. Turning to `Cc1ccc(S(N)(=O)=O)cc1NC(=O)Cc1ccccc1` [CBK024413], the viability at 28.5 h, 10 µM (% viability) worked out at 86.7%.

Consider `O=C(NCc1ccccc1OC1CCNC1)C1CCCO1` (stereo not drawn) [CBK024503T], for which, for the setting “% viability”, the viability at 28.5 h, 10 µM is 96.9%. Same read-out and setting: next, `COCCC(=O)NCc1ccccc1OC1CCNC1` (stereo not drawn) [CBK024504T]: 136%; `CS(=O)(=O)c1ccc(C(=O)N(Cc2ccccc2)c2ccc(S(=O)(=O)N3CCOC3=O)cc2)cc1` [CBK024590]: 110%. On to `O=[N+]([O-])c1cc(S(=O)(=O)n2ccc3ccccc32)ccc1N1CCNCC1` [CBK024593C], for which the viability at 28.5 h, 10 µM (% viability) was found to be 91.2%.

Take `Nc1ncnc2c1ncn2C1OC(CO)C(O)C1O` (stereo not drawn) [CBK024679]: the viability at 28.5 h, 10 µM (% viability) was found to be 92.6%.

In the case of `Nc1ccn(C2OC(CO)C(O)C2O)c(=O)n1` (stereo not drawn) [CBK024684], the viability at 28.5 h, 10 µM (% viability) came to 108%. The same measure, in the same setting: the same measure for `NC(=O)c1cccc(Cn2c3c(c4cccc(C(=O)O)c42)CCCCC3)c1` [CBK024834]: 98.6%; for `COc1ccccc1C(=O)N1CCN(C(=O)CN2CCCC2)CC1` [CBK024836]: 88.1%; for `Cc1ccc(C(=O)N2CCN(C(=O)CN3CCN(C)CC3)C2)cc1` [CBK024841C]: 76.4%. On the same count and under the same terms, next, `Cc1nc(Nc2ccc(Cl)cc2)nc(OC2CCNCC2)n1` [CBK024848]: 90.5%. As to `Cc1ccc(S(N)(=O)=O)cc1N` [CBK024851], the viability at 28.5 h, 10 µM (% viability) amounted to 109%. The same measure, in the same setting: next, `CN1CCC2CN(CCCC(c3ccc(F)cc3)c3ccc(F)cc3)CCN2C1=O` (stereo not drawn) [CBK024865C]: 89.9%; `CCCCN1CCC2CN(CCCC(c3ccc(F)cc3)c3ccc(F)cc3)CCN2C1=O` (stereo not drawn) [CBK024880C]: 99.5%.

Turning to `CCN(C)C(=O)N1CCN(CCCC(c2ccc(F)cc2)c2ccc(F)cc2)CC1` [CBK024910C], the viability at 28.5 h, 10 µM (% viability) turned out to be 90.6%. For the compound `CCNC(=O)N1CCN(CCOC(c2ccc(F)cc2)c2ccc(F)cc2)CC1` [CBK024943C], for the setting “% viability”, the viability at 28.5 h, 10 µM came to 95.6%.
